The values that follow come from paper PMC5218480 (PLoS ONE, 2017).

The subject of this experiment is MV-4-11 cells. The experiment can be described thus: Gene expression microarray analysis (Affymetrix PrimeView) and GSEA. In kind it is cell-based, human. Also noted: RFU PODN (11730768_x_at) / Fold change /veh PODN (11730768_x_at) / RFU LINC00158 (11744669_a_at) / Fold change /veh LINC00158 (11744669_a_at) / RFU DUSP10 (11751237_a_at) / Fold change /veh DUSP10 (11751237_a_at) / RFU ID3 (11757404_x_at) / Fold change /veh ID3 (11757404_x_at) / RFU PLEKHG5 (11737974_s_at) / Fold change /veh PLEKHG5 (11737974_s_at) / RFU LRRC4B (11730491_at) / Fold change /veh LRRC4B (11730491_at) / RFU GIMAP4 (11747438_a_at) / Fold change /veh GIMAP4 (11747438_a_at) / RFU KRT8 (11758183_x_at) / Fold change /veh KRT8 (11758183_x_at) / RFU CNN1 (11734310_a_at) / Fold change /veh CNN1 (11734310_a_at) / RFU VPS37D (11726825_at) / Fold change /veh VPS37D (11726825_at) / RFU C10orf10 (11716522_x_at) / Fold change /veh C10orf10 (11716522_x_at) / RFU KIR2DL2 /// KIR2DL4 /// KIR2DL5A /// KIR2DL5B /// KIR2DS1 /// KIR2DS2 /// KIR2DS3 /// KIR2DS4 /// KIR3DL3 /// KIR3DL3 /// KIR3DS1 (11738374_at) / Fold change /veh KIR2DL2 /// KIR2DL4 /// KIR2DL5A /// KIR2DL5B /// KIR2DS1 /// KIR2DS2 /// KIR2DS3 /// KIR2DS4 /// KIR3DL3 /// KIR3DL3 /// KIR3DS1 (11738374_at) / RFU C1QL1 (11718748_at) / Fold change /veh C1QL1 (11718748_at) / RFU TMPRSS4 (11747572_a_at) / Fold change /veh TMPRSS4 (11747572_a_at) / RFU HAMP (11756126_x_at) / Fold change /veh HAMP (11756126_x_at) / RFU RNFT2 (11725882_a_at) / Fold change /veh RNFT2 (11725882_a_at) / RFU NR4A2 (11747474_a_at) / Fold change /veh NR4A2 (11747474_a_at) / RFU ABCC12 (11746883_a_at) / Fold change /veh ABCC12 (11746883_a_at) / RFU TMEM136 (11760407_x_at) / Fold change /veh TMEM136 (11760407_x_at) / RFU CLDN22 /// WWC2 (11732394_at) / Fold change /veh CLDN22 /// WWC2 (11732394_at) / RFU HLA-DPB1 (11760878_x_at) / Fold change /veh HLA-DPB1 (11760878_x_at) / RFU SPINT1 (11716480_a_at) / Fold change /veh SPINT1 (11716480_a_at) / RFU GAP43 (11754022_s_at) / Fold change /veh GAP43 (11754022_s_at) / RFU A4GNT (11735810_at) / Fold change /veh A4GNT (11735810_at) / RFU PRB3 (11715151_x_at) / Fold change /veh PRB3 (11715151_x_at) / RFU TUBB4B (11761932_at) / Fold change /veh TUBB4B (11761932_at) / RFU CAPN14 (11732068_a_at) / Fold change /veh CAPN14 (11732068_a_at) / RFU TMCC2 (11721928_a_at) / Fold change /veh TMCC2 (11721928_a_at) / RFU IRGQ (11745062_a_at) / Fold change /veh IRGQ (11745062_a_at) / RFU FAM174B (11720279_a_at) / Fold change /veh FAM174B (11720279_a_at) / RFU TMPRSS4 (11748680_a_at) / Fold change /veh TMPRSS4 (11748680_a_at) / RFU FAM212B (11763350_a_at) / Fold change /veh FAM212B (11763350_a_at) / RFU PLEKHG5 (11743358_a_at) / Fold change /veh PLEKHG5 (11743358_a_at) / RFU ZSCAN30 (11745921_a_at) / Fold change /veh ZSCAN30 (11745921_a_at) / RFU CMKLR1 (11741424_a_at) / Fold change /veh CMKLR1 (11741424_a_at) / RFU LOC101060620 /// MAPK8IP1 (11723275_at) / Fold change /veh LOC101060620 /// MAPK8IP1 (11723275_at) / RFU SPTSSB (11747773_x_at) / Fold change /veh SPTSSB (11747773_x_at) / RFU PRSS12 (11739890_at) / Fold change /veh PRSS12 (11739890_at) / RFU BIN1 (11741810_x_at) / Fold change /veh BIN1 (11741810_x_at) / RFU WNT11 (11732464_a_at) / Fold change /veh WNT11 (11732464_a_at) / RFU C10orf10 (11716521_a_at) / Fold change /veh C10orf10 (11716521_a_at) / RFU C5orf56 (11738089_at) / Fold change /veh C5orf56 (11738089_at) / RFU CYB561 (11721691_x_at) / Fold change /veh CYB561 (11721691_x_at) / RFU ANKRD19P (11752326_a_at) / Fold change /veh ANKRD19P (11752326_a_at) / RFU OR2T12 /// OR2T33 /// OR2T8 (11738714_s_at) / Fold change /veh OR2T12 /// OR2T33 /// OR2T8 (11738714_s_at) / RFU VCAN (11748164_a_at) / Fold change /veh VCAN (11748164_a_at) / RFU JSRP1 (11732532_at) / Fold change /veh JSRP1 (11732532_at) / RFU KRTAP10-11 (11738290_x_at) / Fold change /veh KRTAP10-11 (11738290_x_at) / RFU MYO3A (11730013_a_at) / Fold change /veh MYO3A (11730013_a_at) / RFU EBF3 (11725865_a_at) / Fold change /veh EBF3 (11725865_a_at) / RFU CAMK2N1 (11719241_x_at) / Fold change /veh CAMK2N1 (11719241_x_at) / RFU C5orf56 (11738088_a_at) / Fold change /veh C5orf56 (11738088_a_at) / RFU OLFML3 (11715873_a_at) / Fold change /veh OLFML3 (11715873_a_at) / RFU LOC100653217 /// NTM (11731650_a_at) / Fold change /veh LOC100653217 /// NTM (11731650_a_at) / RFU MAPK11 (11762145_a_at) / Fold change /veh MAPK11 (11762145_a_at) / RFU FIZ1 (11724087_x_at) / Fold change /veh FIZ1 (11724087_x_at) / RFU OASL (11726364_x_at) / Fold change /veh OASL (11726364_x_at) / RFU SOX15 (11748057_x_at) / Fold change /veh SOX15 (11748057_x_at) / RFU CD79A (11719716_a_at) / Fold change /veh CD79A (11719716_a_at) / RFU HIST1H1D (11736915_at) / Fold change /veh HIST1H1D (11736915_at) / RFU CASKIN2 (11723855_a_at) / Fold change /veh CASKIN2 (11723855_a_at) / RFU LOC730098 (11760151_x_at) / Fold change /veh LOC730098 (11760151_x_at) / RFU OR4N2 (11742367_at) / Fold change /veh OR4N2 (11742367_at) / RFU PRRT2 (11749266_a_at) / Fold change /veh PRRT2 (11749266_a_at) / RFU SNX32 (11753110_a_at) / Fold change /veh SNX32 (11753110_a_at) / RFU CDHR5 (11726645_a_at) / Fold change /veh CDHR5 (11726645_a_at) / RFU RCAN1 (11760418_a_at) / Fold change /veh RCAN1 (11760418_a_at) / RFU FAM167A (11723789_a_at) / Fold change /veh FAM167A (11723789_a_at) / RFU FAM26E (11764081_at) / Fold change /veh FAM26E (11764081_at) / RFU ISYNA1 (11749810_s_at) / Fold change /veh ISYNA1 (11749810_s_at) / RFU ACY1 (11761880_at) / Fold change /veh ACY1 (11761880_at) / RFU 11764098_at / Fold change /veh 11764098_at / RFU SAMD14 (11745864_x_at) / Fold change /veh SAMD14 (11745864_x_at) / RFU NPB (11741838_a_at) / Fold change /veh NPB (11741838_a_at) / RFU TMPRSS6 (11731388_a_at) / Fold change /veh TMPRSS6 (11731388_a_at) / RFU KRTAP10-2 (11738614_at) / Fold change /veh KRTAP10-2 (11738614_at) / RFU ARHGAP8 /// PRR5-ARHGAP8 (11727945_x_at) / Fold change /veh ARHGAP8 /// PRR5-ARHGAP8 (11727945_x_at) / RFU KRTAP5-7 /// NADSYN1 (11734609_at) / Fold change /veh KRTAP5-7 /// NADSYN1 (11734609_at) / RFU RASL12 (11751679_a_at) / Fold change /veh RASL12 (11751679_a_at) / RFU CDKN2B (11736163_a_at) / Fold change /veh CDKN2B (11736163_a_at) / RFU PRF1 (11729649_at) / Fold change /veh PRF1 (11729649_at) / RFU, ZNF638 /// ZNF638-IT1 / Fold change vs veh, ZNF638 /// ZNF638-IT1 / RFU, PANK3 / Fold change vs veh, PANK3 / RFU, SH3YL1 / Fold change vs veh, SH3YL1 / RFU, ZEB2 / Fold change vs veh, ZEB2 / RFU, NRIP1 / Fold change vs veh, NRIP1 / RFU, PTTG1IP / Fold change vs veh, PTTG1IP / RFU, CAPN2 / Fold change vs veh, CAPN2 / RFU, MED14 / Fold change vs veh, MED14 / RFU, SNORA58 / Fold change vs veh, SNORA58 / RFU, C1orf63 / Fold change vs veh, C1orf63 / RFU, LRRFIP1 / Fold change vs veh, LRRFIP1 / RFU, NDUFAF7 / Fold change vs veh, NDUFAF7 / RFU, SLC12A2 / Fold change vs veh, SLC12A2 / RFU, IBTK / Fold change vs veh, IBTK / RFU, ESF1 / Fold change vs veh, ESF1 / Fold change vs veh, TMEM50B / RFU, TAOK1 / Fold change vs veh, TAOK1 / RFU, ACBD3 / Fold change vs veh, ACBD3 / RFU, TMA16 / Fold change vs veh, TMA16 / RFU, RWDD3 / Fold change vs veh, RWDD3 / RFU, BCAT1 / Fold change vs veh, BCAT1 / RFU, EDEM3 / Fold change vs veh, EDEM3 / RFU, TMEM33 / Fold change vs veh, TMEM33 / RFU, WDR75 / Fold change vs veh, WDR75 / RFU, AHCTF1 / Fold change vs veh, AHCTF1 / RFU, TFRC / Fold change vs veh, TFRC / RFU, ZDHHC17 / Fold change vs veh, ZDHHC17 / RFU, NOM1 / Fold change vs veh, NOM1 / RFU, ARL8B / Fold change vs veh, ARL8B / RFU, ZBTB11 / Fold change vs veh, ZBTB11 / RFU, TAMM41 / Fold change vs veh, TAMM41 / RFU, KIAA1704 /// LOC100996395 / Fold change vs veh, KIAA1704 /// LOC100996395 / RFU, ING1 / Fold change vs veh, ING1 / RFU, TRMT61B / Fold change vs veh, TRMT61B / RFU, FUBP3 / Fold change vs veh, FUBP3 / RFU, TP53 / Fold change vs veh, TP53 / RFU, TNKS2 / Fold change vs veh, TNKS2 / RFU, ZFP14 / Fold change vs veh, ZFP14 / RFU, ACTR2 / Fold change vs veh, ACTR2 / RFU, PPP3R1 / Fold change vs veh, PPP3R1 / RFU, PIK3R1 / Fold change vs veh, PIK3R1 / RFU, HNRNPA1 / Fold change vs veh, HNRNPA1 / RFU, RNF170 / Fold change vs veh, RNF170 / RFU, ZNF28 / Fold change vs veh, ZNF28 / RFU, RNGTT / Fold change vs veh, RNGTT / RFU, OGT / Fold change vs veh, OGT / RFU, BRD1 / Fold change vs veh, BRD1 / RFU, MARS / Fold change vs veh, MARS / RFU, ZNF655 / Fold change vs veh, ZNF655 / RFU, FAHD1 / Fold change vs veh, FAHD1 / RFU, BDP1 / Fold change vs veh, BDP1 / RFU, LRRCC1 / Fold change vs veh, LRRCC1 / RFU, ARID1A / Fold change vs veh, ARID1A / RFU, ZNF146 / Fold change vs veh, ZNF146 / RFU, ZNF330 / Fold change vs veh, ZNF330 / RFU, GPN3 / Fold change vs veh, GPN3 / RFU, C9orf123 / Fold change vs veh, C9orf123 / RFU, N4BP2L2 / Fold change vs veh, N4BP2L2 / RFU, ARFIP1 / Fold change vs veh, ARFIP1 / RFU, FAM179B / Fold change vs veh, FAM179B / RFU, BCL10 / Fold change vs veh, BCL10 / RFU, UHRF1BP1L / Fold change vs veh, UHRF1BP1L / RFU, BET1 / Fold change vs veh, BET1 / RFU, CNOT2 / Fold change vs veh, CNOT2 / RFU, ZNF268 / Fold change vs veh, ZNF268 / Fold change vs veh, ZNF507 / RFU, DGCR2 / Fold change vs veh, DGCR2 / RFU, WDSUB1 / Fold change vs veh, WDSUB1 / Fold change vs veh, HSP90B1 /// MIR3652 / RFU, ADSS / Fold change vs veh, ADSS / RFU, GK / Fold change vs veh, GK / RFU, ZNF148 / Fold change vs veh, ZNF148 / RFU, TAF9 / Fold change vs veh, TAF9 / RFU, SLC1A5 / Fold change vs veh, SLC1A5 / RFU, SLMO2 / Fold change vs veh, SLMO2 / RFU, ABCC4 / Fold change vs veh, ABCC4 / RFU, LOC101060439 /// RAP1B / Fold change vs veh, LOC101060439 /// RAP1B / RFU, RFX7 / Fold change vs veh, RFX7 / RFU, GTPBP10 / Fold change vs veh, GTPBP10 / RFU, CNEP1R1 / Fold change vs veh, CNEP1R1 / RFU, BIVM-ERCC5 /// ERCC5 / Fold change vs veh, BIVM-ERCC5 /// ERCC5 / RFU, ILF3 / Fold change vs veh, ILF3 / RFU 11762660_at / Fold change /veh 11762660_at / RFU VCAN (11757783_s_at) / Fold change /veh VCAN (11757783_s_at) / RFU DDX43 (11728927_at) / Fold change /veh DDX43 (11728927_at) / RFU KRT8 (11758188_x_at) / Fold change /veh KRT8 (11758188_x_at) / RFU NKD1 (11759106_at) / Fold change /veh NKD1 (11759106_at) / RFU SRD5A1 (11742802_a_at) / Fold change /veh SRD5A1 (11742802_a_at) / RFU TPSAB1 /// TPSB2 (11721975_s_at) / Fold change /veh TPSAB1 /// TPSB2 (11721975_s_at) / RFU GSTM3 (11746129_a_at) / Fold change /veh GSTM3 (11746129_a_at) / RFU IL23R (11737362_x_at) / Fold change /veh IL23R (11737362_x_at) / RFU TMEM51 (11727254_a_at) / Fold change /veh TMEM51 (11727254_a_at) / RFU PIWIL2 (11732686_x_at) / Fold change /veh PIWIL2 (11732686_x_at) / RFU ORM1 (11744905_x_at) / Fold change /veh ORM1 (11744905_x_at) / RFU CCDC152 (11743942_at) / Fold change /veh CCDC152 (11743942_at) / RFU ECM1 (11717891_a_at) / Fold change /veh ECM1 (11717891_a_at) / RFU IL23R (11748794_a_at) / Fold change /veh IL23R (11748794_a_at) / RFU TNFAIP8L3 (11732012_x_at) / Fold change /veh TNFAIP8L3 (11732012_x_at) / RFU MBOAT4 (11741988_at) / Fold change /veh MBOAT4 (11741988_at) / RFU 11764193_at / Fold change /veh 11764193_at / RFU TMEM53 (11763286_at) / Fold change /veh TMEM53 (11763286_at) / RFU MAGEB2 (11727129_at) / Fold change /veh MAGEB2 (11727129_at) / RFU TMEM200A (11744735_a_at) / Fold change /veh TMEM200A (11744735_a_at) / RFU CCDC152 (11751479_a_at) / Fold change /veh CCDC152 (11751479_a_at) / RFU FAM211A (11726209_a_at) / Fold change /veh FAM211A (11726209_a_at) / RFU RGS16 (11746705_a_at) / Fold change /veh RGS16 (11746705_a_at) / RFU VCAN (11755009_s_at) / Fold change /veh VCAN (11755009_s_at) / RFU RHOB (11743442_s_at) / Fold change /veh RHOB (11743442_s_at) / RFU RGS16 (11720943_a_at) / Fold change /veh RGS16 (11720943_a_at) / RFU RGS16 (11720944_at) / Fold change /veh RGS16 (11720944_at) / RFU, VPS4B / Fold change vs veh, VPS4B / RFU, CREB1 / Fold change vs veh, CREB1 / RFU, DNAJC13 / Fold change vs veh, DNAJC13 / RFU, GNAQ / Fold change vs veh, GNAQ / RFU, CDK5R1 / Fold change vs veh, CDK5R1 / RFU, ZRANB3 / Fold change vs veh, ZRANB3 / RFU, CUL4A / Fold change vs veh, CUL4A / RFU, CCNY / Fold change vs veh, CCNY / RFU, UFL1 / Fold change vs veh, UFL1 / RFU, COG3 / Fold change vs veh, COG3 / RFU, DIAPH2 / Fold change vs veh, DIAPH2 / RFU, SKA2 / Fold change vs veh, SKA2 / RFU, AFF3 / Fold change vs veh, AFF3 / RFU, LMF1 / Fold change vs veh, LMF1 / RFU, IPO11 / Fold change vs veh, IPO11 / RFU, DFFB / Fold change vs veh, DFFB / RFU, FOXP1 / Fold change vs veh, FOXP1 / RFU, CARD8 / Fold change vs veh, CARD8 / RFU, STRN3 / Fold change vs veh, STRN3 / RFU, ADK / Fold change vs veh, ADK / RFU, RASSF2 / Fold change vs veh, RASSF2 / RFU, WIPF1 / Fold change vs veh, WIPF1 / RFU, LARP1B / Fold change vs veh, LARP1B / RFU, RASA1 / Fold change vs veh, RASA1 / RFU, RB1 / Fold change vs veh, RB1 / RFU, PPFIA1 / Fold change vs veh, PPFIA1 / RFU, MAT2A / Fold change vs veh, MAT2A / RFU, CCT5 / Fold change vs veh, CCT5 / RFU, WDR92 / Fold change vs veh, WDR92 / RFU, CUX1 / Fold change vs veh, CUX1 / RFU, TTC7A / Fold change vs veh, TTC7A / RFU, TMEM135 / Fold change vs veh, TMEM135 / RFU, DEPTOR / Fold change vs veh, DEPTOR / RFU, CPM / Fold change vs veh, CPM / RFU, DNAJB6 / Fold change vs veh, DNAJB6 / RFU, CACNA2D3 / Fold change vs veh, CACNA2D3 / RFU, DTX4 / Fold change vs veh, DTX4 / RFU, TFCP2 / Fold change vs veh, TFCP2 / RFU, GMCL1 /// GMCL1P1 / Fold change vs veh, GMCL1 /// GMCL1P1 / RFU, AEBP2 / Fold change vs veh, AEBP2 / RFU, SNHG1 /// SNORD22 /// SNORD25 /// SNORD26 /// SNORD27 /// SNORD28 /// SNORD29 /// SNORD31 / Fold change vs veh, SNHG1 /// SNORD22 /// SNORD25 /// SNORD26 /// SNORD27 /// SNORD28 /// SNORD29 /// SNORD31 / Fold change (Aza/veh), C12orf56 (ProbeSet 11735607_a_at) / Fold change (ACY-1035/veh), C12orf56 (ProbeSet 11735607_a_at) / Fold change (Aza/veh), FGFR1OP (ProbeSet 11751329_s_at) / Fold change (ACY-1035/veh), FGFR1OP (ProbeSet 11751329_s_at) / Fold change (Aza/veh), VPS36 (ProbeSet 11739960_a_at) / Fold change (ACY-1035/veh), VPS36 (ProbeSet 11739960_a_at) / RFU SYPL1 (11715823_x_at) / Fold change /veh SYPL1 (11715823_x_at) / RFU IGFBP7 (11715501_s_at) / Fold change /veh IGFBP7 (11715501_s_at) / RFU REEP3 (11722064_at) / Fold change /veh REEP3 (11722064_at) / RFU IGLL1 (11728026_x_at) / Fold change /veh IGLL1 (11728026_x_at): dose or concentration left out as unconfirmed. The note with it: MV-4-11 cells, 48 hours.

For the molecule `Nc1ncn([C@@H]2O[C@H](CO)[C@@H](O)[C@H]2O)c(=O)n1` [azacitidine], the “Fold change /veh IGFBP7 (11715501_s_at)” value worked out at 0.50.
